Drawing on patent publication EP4001279A1, “NOVEL SPIROPYRROLIDINE DERIVED ANTIVIRAL AGENTS” (Enanta Pharmaceuticals, Inc., priority 2020, dated 2022), this text covers EC50 for 58 compounds.

The subject of this assay is 229E human corona virus (hCoV). Nature of the assay: 229E live virus assay (CPE, ATPlite readout in MRC-5 cells). The assay is classed as cell-based, hCoV-229E. To be noted: Human coronavirus 229E, MRC5, hCoV-229E live virus, MOI 0.05, ATPlite readout, run in duplicate. (Cellular ATP, detected with luciferase, serves as a proxy for viable cell number.)

SMILES strings stand for the structures. Some results are limits rather than exact numbers.

In the case of `CC(C)C[C@@H](C(=O)N1C[C@]2(C[C@H]1C#N)C(=O)Nc1ccccc12)N(C)C(=O)c1c(Cl)ccc(Cl)c1F` [Example 169], the EC50 is < 100 nM.

As to `COc1ccc(Cl)cc1C(=O)N(C)[C@@H](CC(C)C)C(=O)N1C[C@]2(C[C@H]1C#N)C(=O)Nc1ccccc12` [Example 170], the EC50 was < 100 nM.

In the case of `CC(C)C[C@@H](C(=O)N1C[C@]2(C[C@H]1C#N)C(=O)Nc1ccccc12)N(C)C(=O)c1cc(Cl)c(F)cc1F` [Example 171], the EC50 was < 100 nM.

Consider `CC(C)C[C@@H](C(=O)N1C[C@]2(C[C@H]1C#N)C(=O)Nc1ccccc12)N(C)C(=O)c1cc(Cl)cc(Cl)c1` [Example 172], for which the EC50 was < 100 nM.

Consider `CC(C)C[C@@H](C(=O)N1C[C@]2(C[C@H]1C#N)C(=O)Nc1ccccc12)N(C)C(=O)c1cc(F)cc(Cl)c1` [Example 173], for which the concentration giving a half-maximal response (EC50) is < 100 nM.

With `CC(C)C[C@@H](C(=O)N1C[C@]2(C[C@H]1C#N)C(=O)Nc1ccccc12)N(C)C(=O)c1ccc(Cl)c(C(F)(F)F)c1` [Example 174], the EC50 was < 100 nM.

Turning to `CC(C)C[C@@H](C(=O)N1C[C@]2(C[C@H]1C#N)C(=O)Nc1ccccc12)N(C)C(=O)c1ccc(Cl)c(F)c1F` [Example 175], the concentration for a half-maximal effect (EC50) was < 100 nM.

With `CC(C)C[C@@H](C(=O)N1C[C@]2(C[C@H]1C#N)C(=O)Nc1ccccc12)N(C)C(=O)c1ccc(F)c(C(F)(F)F)c1` [Example 177], the EC50 is < 100 nM.

`CC(C)C[C@@H](C(=O)N1C[C@]2(C[C@H]1C#N)C(=O)Nc1ccccc12)N(C)C(=O)c1ccc(F)c(F)c1` [Example 178]: the EC50 was < 100 nM.

Turning to `CC(C)C[C@@H](C(=O)N1C[C@]2(C[C@H]1C#N)C(=O)Nc1ccccc12)N(C)C(=O)c1ccc(OC(F)(F)F)c(F)c1` [Example 179], the EC50 is < 100 nM.

Take `COc1ccc(C(=O)N(C)[C@@H](CC(C)C)C(=O)N2C[C@]3(C[C@H]2C#N)C(=O)Nc2ccccc23)cc1C(F)(F)F` [Example 181]: the EC50 is < 100 nM.

In the case of `COc1ccc(C(=O)N(C)[C@@H](CC(C)C)C(=O)N2C[C@]3(C[C@H]2C#N)C(=O)Nc2ccccc23)cc1F` [Example 182], the EC50 is < 100 nM.

In the case of `CC(C)C[C@@H](C(=O)N1C[C@]2(C[C@H]1C#N)C(=O)Nc1ccccc12)N(C)C(=O)c1c(Cl)cc(Cl)cc1Cl` [Example 185], the EC50 is < 100 nM.

Turning to `CC(C)C[C@@H](C(=O)N1C[C@]2(C[C@H]1C#N)C(=O)Nc1ccccc12)N(C)C(=O)c1c(Cl)cc(F)cc1Cl` [Example 186], the EC50 is < 100 nM.

As for `CC(C)C[C@@H](C(=O)N1C[C@]2(C[C@H]1C#N)C(=O)Nc1ccccc12)N(C)C(=O)c1cc(Cl)cc(C#N)c1` [Example 187], the concentration giving a half-maximal response (EC50) was < 100 nM.

As for `CC(C)C[C@@H](C(=O)N1C[C@]2(C[C@H]1C#N)C(=O)Nc1ccccc12)N(C)C(=O)c1cccc(OC(F)F)c1` [Example 188], the EC50 was < 100 nM.

On to `CC(C)C[C@@H](C(=O)N1C[C@]2(C[C@H]1C#N)C(=O)Nc1ccccc12)N(C)C(=O)c1cccc(OC(F)(F)F)c1` [Example 189], for which the EC50 is < 100 nM.

As to `CC(C)C[C@@H](C(=O)N1C[C@]2(C[C@H]1C#N)C(=O)Nc1ccccc12)N(C)C(=O)c1ccc2c(c1)OC(F)(F)O2` [Example 190], the EC50 is < 100 nM.

Regarding `COc1ccnc(C(=O)N(C)[C@@H](CC(C)C)C(=O)N2C[C@]3(C[C@H]2C#N)C(=O)Nc2ccccc23)c1` [Example 192], the EC50 was < 100 nM.

For `COc1ccc(C(=O)N(C)[C@@H](CC(C)C)C(=O)N2C[C@]3(C[C@H]2C#N)C(=O)Nc2ccccc23)nc1` [Example 193], the 50% effective concentration (EC50) was < 100 nM.

With `CC(C)C[C@@H](C(=O)N1C[C@]2(C[C@H]1C#N)C(=O)Nc1ccccc12)N(C)C(=O)c1ccncc1` [Example 194], the EC50 is < 100 nM.

As to `CC(C)C[C@@H](C(=O)N1C[C@]2(C[C@H]1C#N)C(=O)Nc1ccccc12)N(C)C(=O)c1cncc(C(F)(F)F)c1` [Example 195], the EC50 is < 100 nM.

Consider `CC(C)C[C@@H](C(=O)N1C[C@]2(C[C@H]1C#N)C(=O)Nc1ccccc12)N(C)C(=O)c1cncc(F)c1` [Example 196], for which the 50% effective concentration (EC50) is < 100 nM.

With `CC(C)C[C@@H](C(=O)N1C[C@]2(C[C@H]1C#N)C(=O)Nc1ccccc12)N(C)C(=O)c1cc(F)ccn1` [Example 197], the EC50 is < 100 nM.

In the case of `CC(C)C[C@@H](C(=O)N1C[C@]2(C[C@H]1C#N)C(=O)Nc1ccccc12)N(C)C(=O)c1ccc(F)cn1` [Example 198], the EC50 is < 100 nM.

Regarding `CC(C)C[C@@H](C(=O)N1C[C@]2(C[C@H]1C#N)C(=O)Nc1ccccc12)N(C)C(=O)c1cccc(N)n1` [Example 199], the EC50 is < 100 nM.

Turning to `CC(C)C[C@@H](C(=O)N1C[C@]2(C[C@H]1C#N)C(=O)Nc1ccccc12)N(C)C(=O)c1cnccn1` [Example 200], the EC50 was < 100 nM.

In the case of `CC(C)C[C@@H](C(=O)N1C[C@]2(C[C@H]1C#N)C(=O)Nc1ccccc12)N(C)C(=O)c1cn(C)cn1` [Example 201], the EC50 was < 100 nM.

As for `CC(C)C[C@@H](C(=O)N1C[C@]2(C[C@H]1C#N)C(=O)Nc1ccccc12)N(C)C(=O)c1ccn[nH]1` [Example 202], the EC50 was < 100 nM.

`CC(C)C[C@@H](C(=O)N1C[C@]2(C[C@H]1C#N)C(=O)Nc1ccccc12)N(C)C(=O)c1ccnn1C` [Example 203]: the EC50 was < 100 nM.

With `CC(C)C[C@@H](C(=O)N1C[C@]2(C[C@H]1C#N)C(=O)Nc1ccccc12)N(C)C(=O)c1ccn(C)n1` [Example 204], the half-maximal effective concentration (EC50) is < 100 nM.

Take `CC(C)C[C@@H](C(=O)N1C[C@]2(C[C@H]1C#N)C(=O)Nc1ccccc12)N(C)C(=O)c1nc2ccccc2[nH]1` [Example 205]: the EC50 is < 100 nM.

For the compound `CC(C)C[C@@H](C(=O)N1C[C@]2(C[C@H]1C#N)C(=O)Nc1ccccc12)N(C)C(=O)c1nc2ccccc2s1` [Example 206], the EC50 is < 100 nM.

In the case of `CC(C)C[C@@H](C(=O)N1C[C@]2(C[C@H]1C#N)C(=O)Nc1ccccc12)N(C)C(=O)c1cc2ccccc2s1` [Example 207], the EC50 is < 100 nM.

For `CC(C)C[C@@H](C(=O)N1C[C@]2(C[C@H]1C#N)C(=O)Nc1ccccc12)N(C)C(=O)c1cc2ccccc2o1` [Example 208], the EC50 is < 100 nM.

For `CC(C)C[C@@H](C(=O)N1C[C@]2(C[C@H]1C#N)C(=O)Nc1ccccc12)N(C)C(=O)c1cc2sccc2[nH]1` [Example 209], the EC50 is < 100 nM.

Take `CC(C)C[C@@H](C(=O)N1C[C@]2(C[C@H]1C#N)C(=O)Nc1ccccc12)N(C)C(=O)c1ccc2ncccc2c1` [Example 210]: the EC50 was < 100 nM.

In the case of `CC(C)C[C@@H](C(=O)N1C[C@]2(C[C@H]1C#N)C(=O)Nc1ccccc12)N(C)C(=O)c1ccc2ccccc2n1` [Example 211], the EC50 is < 100 nM.

Turning to `CC(C)C[C@@H](C(=O)N1C[C@]2(C[C@H]1C#N)C(=O)Nc1ccccc12)N(C)C(=O)c1cc2ccccc2cn1` [Example 212], the EC50 was < 100 nM.

Consider `CC(C)C[C@@H](C(=O)N1C[C@]2(C[C@H]1C#N)C(=O)Nc1ccccc12)N(C)C(=O)c1cnc2ccccc2c1` [Example 213], for which the EC50 was < 100 nM.

With `CC(C)C[C@@H](C(=O)N1C[C@]2(C[C@H]1C#N)C(=O)Nc1ccccc12)N(C)C(=O)c1cccc2ncccc12` [Example 214], the EC50 is < 100 nM.

In the case of `CC(C)C[C@@H](C(=O)N1C[C@]2(C[C@H]1C#N)C(=O)Nc1ccccc12)N(C)C(=O)c1cccc2cnccc12` [Example 215], the half-maximal effective concentration (EC50) is < 100 nM.

Regarding `CC(C)C[C@@H](C(=O)N1C[C@]2(C[C@H]1C#N)C(=O)Nc1ccccc12)N(C)C(=O)c1ccc2cnccc2c1` [Example 216], the EC50 was < 100 nM.

Regarding `CC(C)C[C@@H](C(=O)N1C[C@]2(C[C@H]1C#N)C(=O)Nc1ccccc12)N(C)C(=O)c1ccc2ccncc2c1` [Example 217], the half-maximal effective concentration (EC50) was < 100 nM.

With `CC(C)C[C@@H](C(=O)N1C[C@]2(C[C@H]1C#N)C(=O)Nc1ccccc12)N(C)C(=O)c1ccc2cccnc2c1` [Example 218], the half-maximal effective concentration (EC50) is < 100 nM.

As to `CC(C)C[C@@H](C(=O)N1C[C@]2(C[C@H]1C#N)C(=O)Nc1ccccc12)N(C)C(=O)c1ccc2ccccc2c1` [Example 219], the EC50 is < 100 nM.

Regarding `CC(C)C[C@@H](C(=O)N1C[C@]2(C[C@H]1C#N)C(=O)Nc1ccccc12)N(C)C(=O)c1cccc2ccccc12` [Example 220], the EC50 was < 100 nM.

As for `CC(C)C[C@@H](C(=O)N1C[C@]2(C[C@H]1C#N)C(=O)Nc1ccccc12)N(C)C(=O)c1ccc(F)c2ccccc12` [Example 221], the half-maximal effective concentration (EC50) was < 100 nM.

On to `CC(C)C[C@@H](C(=O)N1C[C@]2(C[C@H]1C#N)C(=O)Nc1ccccc12)N(C)C(=O)c1ccc2cc(F)ccc2c1` [Example 222], for which the EC50 was < 100 nM.

On to `CC(C)C[C@@H](C(=O)N1C[C@]2(C[C@H]1C#N)C(=O)Nc1ccccc12)N(C)C(=O)c1ccc2cn[nH]c2c1` [Example 223], for which the EC50 was < 100 nM.

Take `CC(C)C[C@@H](C(=O)N1C[C@]2(C[C@H]1C#N)C(=O)Nc1ccccc12)N(C)C(=O)c1ccc2cnn(C)c2c1` [Example 224]: the EC50 was < 100 nM.

For `CC(C)C[C@@H](C(=O)N1C[C@]2(C[C@H]1C#N)C(=O)Nc1ccccc12)N(C)C(=O)c1ccc2nc(N)sc2c1` [Example 225], the EC50 fell in the range of 100 to 1000 nM.

As for `CC(C)C[C@@H](C(=O)N1C[C@]2(C[C@H]1C#N)C(=O)Nc1ccccc12)N(C)C(=O)Cc1ccccc1` [Example 226], the EC50 is < 100 nM.

Consider `CC(C)C[C@@H](C(=O)N1C[C@]2(C[C@H]1C#N)C(=O)Nc1ccccc12)N(C)C(=O)CCc1ccccc1` [Example 227], for which the EC50 was < 100 nM.

Take `CC(C)C[C@@H](C(=O)N1C[C@]2(C[C@H]1C#N)C(=O)Nc1ccccc12)N(C)C(=O)/C=C/c1ccccc1` [Example 228]: the EC50 was < 100 nM.

Regarding `CC(C)C[C@@H](C(=O)N1C[C@]2(C[C@H]1C#N)C(=O)Nc1ccccc12)N(C)C(=O)COc1ccccc1` [Example 229], the EC50 was < 100 nM.

On to `CC(C)C[C@@H](C(=O)N1C[C@]2(C[C@H]1C#N)C(=O)Nc1ccccc12)N(C)C(=O)c1ccc2c(Br)cccc2n1` [Example 231], for which the EC50 is < 100 nM.

`CC(C)C[C@@H](C(=O)N1C[C@]2(C[C@H]1C#N)C(=O)Nc1ccccc12)N(C)C(=O)c1ccc(-c2ccccc2)cc1` [Example 232]: the EC50 is < 100 nM.

For orientation: EC50 means the midpoint of the concentration-response curve.
